Test system: GUMC-403
Assay: viability at highest tested concentration (max response) relative to DMSO (% of DMSO control); higher = less cytotoxic
Details: library / dose series: MIPE library, 11-point 1:3 dilution, 48 h
In short: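 GUMC-403 papilloma cells, derived from a patient and expanded by conditional reprogramming, were dispensed at 700/well into 1536-well plates in 5 μL F + Y medium. A pin tool delivered 23 nL of each compound across an 11-point 1:3 dilution series for 48 h. CellTiter-Glo luminescence, read on a ViewLux, was normalised so that vehicle wells equalled 100% and empty wells 0%. Values report viability at the highest tested concentration relative to vehicle control.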

## Cc1c[nH]c(/C=C2\C(=O)Nc3ccccc32)c1CCC(=O)O
Top concentration 46.1 µM
  viability: 136

## NC(=O)N1c2ccccc2CC(=O)c2ccccc21
Top concentration 46.1 µM
  viability: 111

## COC1=CC=C2C(=CC=NC2=C1)OC3=CC=C(NC(=O)\C4=C(C)\N(CC(C)(C)O)N(C4=O)C5=CC=CC=C5)C=C3F
Top concentration 46.1 µM
  viability: 80.3

## OC[C@H]1O[C@H]([C@@H](F)[C@@H]1O)N2\C=C/C(=O)NC2=O
Top concentration 46.1 µM
  viability: 116

## Nc1c2c(nc3ccccc13)CCCC2
Top concentration 46.1 µM
  viability: 107

## NCCS(=O)(=O)O
Top concentration 46.1 µM
  viability: 123

## c1ccc(CNc2nc(NCc3ccccc3)c3ccccc3n2)cc1
Top concentration 46.1 µM
  viability: 51.8

## CCOc1ccccc1OCCNC(C)Cc1ccc(OC)c([S+](N)(=O)[O-])c1 (configuration not stated)
Top concentration 46.1 µM
  viability: 135

## O=C(O)CC/C=C\CC[C@@H]1[C@@H](N2CCCCC2)[C@@H](O)C[C@@H]1OCc1ccc(-c2ccccc2)cc1
Top concentration 46.1 µM
  viability: 112

## CCCCOc1ccc(C(=O)Nc2ccc(F)cc2F)cc1
Top concentration 46.1 µM
  viability: 101

## CCOC(=O)c1ncn2c1CN(C)C(=O)c1cc(F)ccc1-2
Top concentration 46.1 µM
  viability: 108

## CCC\C1=C\C(=O)NC(=S)N1
Top concentration 46.1 µM
  viability: 110

## CCC(C1CCC(C)C(O1)C(C)C(O)C(C)C(=O)C(CC)C2OC\3(O[C@]4(CC[C@@](C)(O4)C5CC[C@@](O)(CC)C(C)O5)C(O)\C=C3)C(C)CC2C)C([O-])=O (some centres not stated)
Top concentration 46.1 µM
  viability: 76

## COC1=CC2=C(C=C1CC3=C(F)C(=CC=C3)Cl)C(=O)\C(=C/N2[C@H](CO)C(C)C)C(O)=O
Top concentration 46.1 µM
  viability: 124

## Fc1ccc(C(c2ccc(F)cc2)N2CCN(C/C=C/c3ccccc3)CC2)cc1
Top concentration 46.1 µM
  viability: 109

## COC(=O)\C1=C\CCN(C)C1
Top concentration 46.1 µM
  viability: 111

## C[S+](=O)([O-])c1cccc(CNc2nc(Nc3ccc4c(c3)CCC(=O)N4)ncc2C(F)(F)F)c1
Top concentration 46.1 µM
  viability: 66.8

## Cn1cnc([N+](=O)[O-])c1Sc1ncnc2nc[nH]c12
Top concentration 46.1 µM
  viability: 105

## CCOC(=O)\C1=C(/C)N\C2=C(C1C3=CC=C(C=C3)C4=CC=CC=C4)\C(=O)CC(C)(C)C2 (configuration not stated)
Top concentration 46.1 µM
  viability: 82.6

## Cc1cc(O)c2c3c4c(cc(O)c13)C(C)(C)C(=O)c1c(O)cc(O)c(c1-4)C2=O
Top concentration 46.1 µM
  viability: 104

## O[C@@H]1[C@@H](O)[C@H](O[C@@H]([C@H]1O)C(O)=O)OC2=C(O)C(=C3C(=O)\C=C(/OC3=C2)C4=CC=CC=C4)O
Top concentration 46.1 µM
  viability: 133

## COc1cc(Oc2ccnc3cc(OC)c(OC)cc23)ccc1NC(=O)NC(C)c1nccs1 (configuration not stated)
Top concentration 46.1 µM
  viability: 110

## CC(C)(C)NC(=O)Nc1cccc(Nc2ncc(F)c(NC(C)(C)CO)n2)c1
Top concentration 46.1 µM
  viability: 121

## N=C(N)c1ccc(OCCCCCOc2ccc(C(=N)N)cc2)cc1
Top concentration 46.1 µM
  viability: 101

## OC1=CC2=C(C(=C1)O)C(=O)\C(=C(/O2)C3=CC(=C(O)C(=C3)O)O)O
Top concentration 46.1 µM
  viability: 102

## COCCNCCCn1c(C(=O)CF)c(-c2ccc(C)cc2)c2c(N)ncnc21
Top concentration 46.1 µM
  viability: 90.7

## Cc1[nH]c(/C=C2\C(=O)Nc3ccc([S+](=O)([O-])Cc4c(Cl)cccc4Cl)cc32)c(C)c1C(=O)N1CCC[C@@H]1CN1CCCC1
Top concentration 46.1 µM
  viability: 113

## CC1=CC=C2N=C(NC(=O)CS\C3=N\C4=C(\SCC4)C(=O)N3C5=CC=CC=C5)SC2=C1
Top concentration 46.1 µM
  viability: 109

## COC1=CC=C(C=C1)C/2=C/OC3=CC(=CC=C3C2=O)O
Top concentration 46.1 µM
  viability: 95.7

## CCCC1=NC(=C2[N]1NC(=N\C2=O)/C3=CC(=CC=C3OCC)[S+]([O-])(=O)N4CCN(CC)CC4)C
Top concentration 46.1 µM
  viability: 102

## CC(=O)O.Cc1c(-c2ccc(O)cc2)n(Cc2ccc(OCCN3CCCCCC3)cc2)c2ccc(O)cc12
Top concentration 46.1 µM
  viability: 130

## CC(C)c1cnn2c(NCc3ccccc3)cc(NCCCCCCN)nc12
Top concentration 46.1 µM
  viability: 72.8

## CN(C)Cc1c(C(=O)NCCOc2ccc(C(=O)NO)cc2)oc2ccccc12
Top concentration 46.1 µM
  viability: 82.5

## OC(=O)\C1=C\N(C2CC2)C3=CC(=C(F)C=C3C1=O)N4CCNCC4
Top concentration 46.1 µM
  viability: 105

## COc1cc2c(Nc3ccc(Cl)c(Cl)c3F)ncnc2cc1OCC1C[C@@H]2CN(C)C[C@@H]2C1 (some centres not stated)
Top concentration 46.1 µM
  viability: 12.5

## CCC[C@@H]1C[C@@H](C(=O)N[C@@H]([C@H]2O[C@H](SC)[C@H](O)[C@@H](O)[C@H]2O)[C@@H](C)O)N(C)C1.Cl
Top concentration 46.1 µM
  viability: 101

## COc1ccc2cc3[n+](cc2c1OC)CCc1cc2c(cc1-3)OCO2
Top concentration 46.1 µM
  viability: 99.7

## c1cc(-c2sc(-c3ccncc3)c(-c3ccncc3)c2-c2ccncc2)ccn1
Top concentration 46.1 µM
  viability: 106

## Cc1coc2c1C(=O)C(=O)c1c-2ccc2c1CCCC2(C)C
Top concentration 46.1 µM
  viability: 113

## CN(C)CC/C=C1/c2ccccc2COc2ccc(CC(=O)O)cc21
Top concentration 46.1 µM
  viability: 100

## OC[C@@H](O)[C@@H](O)[C@H](O)[C@@H](O)CO
Top concentration 46.1 µM
  viability: 128

## Cn1c(=O)c2c(ncn2C)n(C)c1=O.O=C(O)CC(O)(CC(=O)O)C(=O)O
Top concentration 46.1 µM
  viability: 98.9

## COc1cc2nc(N(C)CCCNC(=O)C3CCCO3)nc(N)c2cc1OC (configuration not stated)
Top concentration 46.1 µM
  viability: 116

## CC(=O)N(C)c1cccc(-c2ccnc3c(C(=O)c4cccs4)cnn23)c1
Top concentration 46.1 µM
  viability: 106

## CCN(c1ccccc1)c1cc(NC)[n+](C)c(C)n1
Top concentration 46.1 µM
  viability: 115

## CC(C)OC(=O)/C1=C/N(CC(C)(C)C2=C1[NH]C3=CC=CC=C23)C(=O)C4=CC=C(F)C(=C4)F
Top concentration 46.1 µM
  viability: 107

## O=C(Nc1ccccc1Br)N[C@@H]1CCN(c2ccc(C(F)(F)F)cn2)C1
Top concentration 46.1 µM
  viability: 114

## O=C1N(c2ccccc2)c2ccccc2C1(Cc1ccncc1)Cc1ccncc1
Top concentration 46.1 µM
  viability: 108

## Cc1cc(Nc2cc(CN3CCOCC3)c3nc(C)c(Cc4ccc(Cl)cc4F)n3n2)[nH]n1
Top concentration 46.1 µM
  viability: 74.1

## Cc1ccc(NC(=O)Nc2cc(C(F)(F)F)ccc2F)cc1Nc1ccc2c(c1)NC(=O)/C2=C\c1ccc[nH]1
Top concentration 46.1 µM
  viability: 99.8

## NC(=O)c1ccc(-c2nc(-c3ccc4c(c3)OCO4)c(-c3ccccn3)[nH]2)cc1
Top concentration 46.1 µM
  viability: 126

## CCC(=O)N[C@H]1CC[C@H](C(=O)N(C)c2ccc(-c3nc4ccccc4o3)cc2)C1
Top concentration 46.1 µM
  viability: 84.8

## CN(C)/N=N/c1nc[nH]c1C(N)=O
Top concentration 46.1 µM
  viability: 123

## Nc1ccc(C(=O)c2cc3c(ccc4ccccc43)[nH]2)cc1
Top concentration 46.1 µM
  viability: 109

## C[N]1C=C(C2=CC=CC=C12)\C3=C(\C(=O)NC3=O)C4=C[N](C5CCN(CC5)CC6=NC=CC=C6)C7=C4C=CC=C7
Top concentration 46.1 µM
  viability: 128

## CCn1c(-c2nonc2N)nc2cncc(CNC3CCNCC3)c21
Top concentration 46.1 µM
  viability: 121

## CNc1nc(-c2ccc3c(N)n[nH]c3c2)cc(N2C[C@@H](C(=O)NC3CCCCC3)CC[C@H]2C)n1
Top concentration 46.1 µM
  viability: 87.8

## Nc1cccc2c1C(=O)N(C1CCC(=O)NC1=O)C2=O (configuration not stated)
Top concentration 46.1 µM
  viability: 107

## c1cc2c(cc1[C@H]1OC[C@H]3[C@@H]1CO[C@@H]3c1ccc3c(c1)OCO3)OCO2
Top concentration 46.1 µM
  viability: 124

## OC[C@H]1O[C@@H]2[C@@H](OC\3=N\C(=N)\C=C/[N@@]23)[C@@H]1O
Top concentration 46.1 µM
  viability: 124

## Cc1cc2c(F)c(Oc3ncnn4cc(OC[C@@H](C)O)c(C)c34)ccc2[nH]1
Top concentration 46.1 µM
  viability: 118

## Cn1cc(-c2ccc3nnc(Sc4ccc5ncccc5c4)n3n2)cn1
Top concentration 46.1 µM
  viability: 108

## CCOC(=O)C/1=C(O)/C(=O)N(CC2=CC=CC=C2)C1
Top concentration 46.1 µM
  viability: 136

## C#CCN[C@@H]1CCc2ccccc21.CS(=O)(=O)O
Top concentration 46.1 µM
  viability: 89

## CC(=O)OCC(=O)[C@@]12\N=C(C)/O[C@@H]1C[C@H]3[C@@H]4CCC/5=C/C(=O)/C=C\[C@]5(C)[C@H]4[C@@H](O)C[C@]23C
Top concentration 46.1 µM
  viability: 112

## COc1nc(C)cnc1N[S+](=O)([O-])c1cccnc1-c1ccc(-c2nnco2)cc1
Top concentration 46.1 µM
  viability: 138

## C[C@@H](O)[C@@H]1NC(=O)[C@H](CCCCN)NC(=O)[C@@H](Cc2c[nH]c3ccccc23)NC(=O)[C@H](Cc2ccccc2)NC(=O)[C@@H](NC(=O)[C@H](N)Cc2ccccc2)CSSC[C@@H](C(=O)N[C@H](CO)[C@@H](C)O)NC1=O
Top concentration 46.1 µM
  viability: 89.7

## CC(C)(C)C(=O)Oc1ccc2c(c1)nc(NC(=O)c1cccc([N+](=O)[O-])c1)n2CCCO
Top concentration 46.1 µM
  viability: 106

## COc1ccc2c(c[n+](C)c3c4cc5c(cc4ccc23)OCO5)c1OC
Top concentration 46.1 µM
  viability: 38.7

## CN(c1nccc(=O)[nH]1)C1CCN(c2nc3ccccc3n2Cc2ccc(F)cc2)CC1
Top concentration 46.1 µM
  viability: 97.4

## NC(=O)c1ccc(N(C(N)=O)c2c(F)cccc2F)nc1-c1ccc(F)cc1F
Top concentration 46.1 µM
  viability: 109

## CC(C)c1nc(CN(C)C(=O)N[C@H](C(=O)N[C@@H](Cc2ccccc2)C[C@H](O)[C@H](Cc2ccccc2)NC(=O)OCc2cncs2)C(C)C)cs1
Top concentration 46.1 µM
  viability: 99.7

## C=CC(=O)Nc1cc2c(Nc3ccc(F)c(Cl)c3)ncnc2cc1C#CC(C)(C)N1CCN(C)CC1
Top concentration 46.1 µM
  viability: 75.9

## c1ccc2c(-c3cnn4cc(-c5ccc(N6CCNCC6)cc5)cnc34)ccnc2c1
Top concentration 46.1 µM
  viability: 2.71

## CCOC(=O)N[C@@H]1CC[C@@H]2[C@@H](C1)C[C@H]1C(=O)O[C@H](C)[C@H]1[C@H]2/C=C/c1ccc(-c2cccc(F)c2)cn1
Top concentration 46.1 µM
  viability: 123

## COc1cccc(Nc2c(C(N)=O)cnc3c(C)cc([S+](=O)([O-])c4cccc(C(=O)N(C)C)c4)cc23)c1
Top concentration 23 µM
  viability: 97.1

## COc1cc(OC)c(C(=O)CCCN2CCCC2)c(OC)c1
Top concentration 46.1 µM
  viability: 112

## CC(=O)OC\C1=C(\[N@]2[C@@H](SC1)[C@H](N)C2=O)C(O)=O
Top concentration 46.1 µM
  viability: 143

## CCCCC[C@H](O)/C=C/[C@H]1[C@H](O)CC(=O)[C@@H]1CCCCCCC(=O)O
Top concentration 46.1 µM
  viability: 107

## C[C@H]1COC2=C3N1\C=C(C(O)=O)/C(=O)C3=CC(=C2N4CCN(C)CC4)F
Top concentration 46.1 µM
  viability: 105

## CC(=O)O[C@@]1(CC[C@H]2[C@@H]3\C=C(Cl)/C4=C/C(=O)[C@@H]5C[C@@H]5[C@]4(C)[C@H]3CC[C@]12C)C(C)=O
Top concentration 46.1 µM
  viability: 76.4

## CN(C)CCc1ccc(O)cc1
Top concentration 46.1 µM
  viability: 118
